The text below walks through data of PMC4573514, “Identification and characterization of [6]-shogaol from ginger as inhibitor of vascular smooth muscle cell proliferation” (Molecular Nutrition & Food Research, 2015).

The subject of data set [1] is VSMC. Description: Crystal violet biomass staining, PDGF-BB-stimulated VSMC. It counts as cell-based. The conditions noted are these: Rattus norvegicus, PDGF-BB 20 ng/mL, 48 h. The procedure:
VSMC were seeded in 96-well plates at 5 × 10^3 cells/well. Twenty-four hours later, cells were serum starved for 24 h to render them quiescent. Quiescent cells were pretreated for 30 min with ginger extract, compounds, or vehicle (0.1% DMSO) as indicated and subsequently stimulated for 48 h with PDGF-BB (20 ng/mL). To determine the total biomass by crystal violet staining, cells were then incubated in 100 μL of crystal violet staining solution (0.5% crystal violet, 20% methanol) for 15 min and then washed with ddH2O. After drying, 100 μL EtOH/Na-citrate solution were added (EtOH: 0.1M Na-citrate = 1:1) and the absorbance of the samples was measured at 595 nm in a 96-well plate reader (Tecan sunrise).

Data set [2] relates to VSMC. In words: Resazurin conversion assay, PDGF-BB-induced VSMC proliferation. In kind it is cell-based, rat. The conditions noted are these: for IC50: VSMC. The procedure:
(§1) VSMC were seeded in 96-well plates at 5 × 10^3 cells/well. After 24 h, cells were serum-starved for 24 h to render them quiescent. Quiescent cells were pretreated for 30 min with ginger extract, compounds, or vehicle (0.1% DMSO) as indicated, and subsequently stimulated for 48 h with PDGF-BB (20 ng/mL). To measure the number of metabolically active VSMC by resazurin conversion,[19], cells were washed with PBS and incubated in serum-free medium containing 10 μg/mL resazurin for 2 h. Total metabolic activity was measured by monitoring the increase in fluorescence at a wavelength of 590 nm using an excitation wavelength of 535 nm in a 96-well plate reader (Tecan GENios Pro). HUVECtert cells,[20] were seeded in 96-well plates at 5 × 10^3 cells/well. After 24 h, HUVECtert cells were treated with compounds or vehicle (0.1% DMSO) as indicated and incubated for 48 h. Then, cells were washed with PBS and incubated in culture medium containing 10 μg/mL resazurin for 2 h. The detection step is performed as described above.

Data set [3] has as its system HUVECtert. Description: Resazurin conversion assay in endothelial cells. In kind it is cell-based, human. Conditions: for Resazurin metabolic conversion in HUVECs (endothelial viability/proliferation): HUVECtert, 48 h, n.s. = no significant difference, up to stated concentration. The procedure: as §1, with “To measure the number of metabolically active VSMC by resazurin conversion,[19], cells were washed with PBS and incubated in serum-free medium containing 10 μg/mL resazurin for 2 h.” left out

Data set [4] relates to VSMC. Description: Assessment of cytotoxicity by LDH release. It counts as cell-based. Conditions: PDGF-BB 20 ng/mL, 24 h, n.s. = no significant difference, up to stated concentration. On the procedure:
VSMC were seeded in 96-well plates at 5 × 10^3 cells/well. Twenty-four hours later, cells were serum starved for 24 h to render them quiescent. Quiescent cells were pretreated for 30 min with compounds, or vehicle (0.1% DMSO) as indicated, and subsequently stimulated for 24 h with PDGF-BB (20 ng/mL). Loss of cell membrane integrity as a sign for cell death can be quantified by the release of the soluble cytosolic protein lactate dehydrogenase (LDH),[23]. For this, the supernatant of the treated cells was assessed for LDH activity. For estimation of the total LDH, identically treated samples were incubated for 45 min in the presence of 1% Triton X-100. The released and total LDH enzyme activity was measured for 30 min at the dark in the presence of 4.5 mg/mL lactate, 0.56 mg/mL NAD+, 1.69 U/mL diaphorase, 0.004% w/v BSA, 0.15% w/v sucrose, and 0.5 mM 2-p-iodophenyl-3-nitrophenyl tetrazolium chloride. The enzyme reaction was stopped with 1.78 mg/mL oxymate and the absorbance was measured at 490 nm. Potential effects on cell viability were estimated as percentage of extracellular LDH enzyme activity. The cytotoxic natural product digitonin (100 μg/mL) was used as a positive control.
A general note: LDH in the medium is a marker of cell lysis.

For data set [5], the system named is Nrf2/HO-1. Description: Immunoblot analysis of HO-1 in WT and Nrf2-/- mouse embryonic fibroblasts. In kind it is cell-based. The conditions noted are these: 10 or 3 μM. On the procedure: (§2) Cells (MEF or VSMC) were seeded onto six-well plates ((3–4) × 10^5 cells/well). Twenty-four hours later, MEF were treated with vehicle (0.1% DMSO) or [6]-shogaol at the indicated concentrations for 20 h; VSMC were serum starved for another 24 h, then quiescent cells were pretreated for 30 min with vehicle (0.1% DMSO) or [6]-shogaol as indicated and subsequently stimulated for 20 h with PDGF-BB (20 ng/mL). Then, cells were lysed and protein extracts were subjected to SDS-PAGE electrophoresis and immunoblot analysis as described,[22]. Proteins were visualized using enhanced chemiluminescence reagent and an LAS-3000 luminescent image analyzer (Fujifilm) with AIDA software (Raytest) for densitometric evaluation.
In general terms: A western blot detects proteins with antibodies after separation by electrophoresis.

On the set-up of data set [6]: method as in PMID 19201263. Conditions: rats, single oral administration of ginger oleoresin 300 mg/kg; ref [39]; cited from earlier work.
Data set [7] relates to VSMC. In words: BrdU incorporation assay (de novo DNA synthesis). It counts as cell-based. The conditions noted are these: Rattus norvegicus, PDGF-BB 20 ng/mL, read-out: Inhibition of PDGF-stimulated DNA synthesis, BrdU incorporation (IC50). On the procedure:
VSMC were seeded in 96-well plates at 5 × 10^3 cells/well. Twenty-four hours later, cells were serum starved for 24 h to render them quiescent. Quiescent cells were pretreated for 30 min with compounds, or vehicle (0.1% DMSO) as indicated and subsequently stimulated with PDGF-BB (20 ng/mL). To estimate de novo DNA synthesis in VSMC [21],[22], BrdU was added 2 h after PDGF stimulation, and the incorporation amount was determined 22 h afterwards according to the manufacturer's instructions (Roche Diagnostics).
In general terms: Incorporation of labelled thymidine or its analogues reports DNA synthesis.

Data set [8] deals with HO-1. Description: Immunoblot analysis of HO-1 expression in VSMC. In kind it is cell-based, rat. Conditions: 3 and 10 μM, PDGF-BB 20 h. On the procedure: as §2
Data set [9] relates to VSMC. Description: Cell-cycle analysis by PI staining and flow cytometry. In kind it is cell-based, rat. Conditions: 10 μM, PDGF-BB 20 ng/mL 16 h, PI stained nuclei. The procedure: VSMC were seeded in 12-well plates at 1 × 10^4 cells/well. Twenty-four hours later, cells were serum starved for 24 h to render them quiescent. Quiescent cells were preincubated with [6]-shogaol (10 μM) or vehicle ([…]) for 30 min. PDGF-BB (20 ng/mL) was added, and 16 h later cells were trypsinized, washed once with PBS, and resuspended in a hypotonic propidium iodide (PI) solution containing 0.1% v/v Triton X-100, 0.1% w/v sodium citrate, and 50 μg/mL PI. After incubation at 4°C overnight, PI-stained nuclei were analyzed by flow cytometry (excitation 488 nm, emission 585 nm; FACScalibur; BD Biosciences, Germany).

[10] abbreviates: Rattus norvegicus, 48 h, PDGF-BB 20 ng/mL, 48 h, read-out: Resazurin metabolic conversion (IC50).

Entries after “also recorded” stand apart in the source; their conditions may differ.

`CCCCCCCC(O)CCc1ccc(O)c(OC)c1` (racemic) [rac-[6]-Dihydroparadol, rac-[6]-dihydroparadol]: the IC50 in [1] was 4.11 µM; in data set [2] (setting [10]), 10 µM. In addition, the “Resazurin metabolic conversion in HUVECs (endothelial viability/proliferation)” value in data set [3] is “n.s. (up to 30 μM)”. Besides, the “Cell death (LDH release)” value in [4] is “n.s. (up to 30 μM)”.
On to `COc1cc(CCC(C)=O)ccc1O` [Zingerone, zingerone], for which the IC50 in [2] (setting [10]) is above 100 µM.
As for `CCCCC[C@H](O)CC(=O)CCc1ccc(O)c(OC)c1` [[6]-Gingerol, [6]-gingerol], the IC50 in data set [1] stood at 8.77 µM; in data set [2] (setting [10]), 13.2 µM. In addition, in data set [3], the “Resazurin metabolic conversion in HUVECs (endothelial viability/proliferation)” value is “n.s. (up to 30 μM)”. In addition, in data set [4], the “Cell death (LDH release)” value is given as “n.s. (up to 100 μM)”.
In the case of `CCCCCCCC(=O)CCc1ccc(O)c(OC)c1` [[6]-Paradol, [6]-paradol], the IC50 in data set [1] was 3.34 µM; in data set [2] (setting [10]), 5.3 µM. In addition, the “Resazurin metabolic conversion in HUVECs (endothelial viability/proliferation)” value in [3] is reported as “n.s. (up to 30 μM)”. Besides, in data set [4], the “Cell death (LDH release)” value is “n.s. (up to 30 μM)”.
As for `CCCCCC=CC(=O)CCc1ccc(O)c(OC)c1` [[6]-Shogaol, [6]-shogaol], the IC50 was 1.13 µM in [1]; 2.7 µM in data set [2] (setting [10]); 2.72 µM in [2] (PDGF-BB 20 ng/mL, 48 h, read-out: Resazurin metabolic conversion (IC50)); 3 µM in data set [7]. Further, in [5], the “HO-1 induction in WT vs Nrf2-/- fibroblasts” value is “strictly Nrf2-dependent increase of HO-1”. For the same molecule, the Peak plasma concentration in data set [6] was 0.11 µg/L. For the same molecule, the “Peak plasma concentration (converted)” value in [6] was 0.40 µM. Also, the “Antiproliferative effect in the presence of HO-1 inhibitor tin protoporphyrin IX” value in [2] ([6]-shogaol 3 μM, SnPP 10 μM pretreatment 1 h, resazurin conversion) was “lost its antiproliferative activity; also recorded: loses its antiproliferative influence on VSMC”. Also, the “Resazurin metabolic conversion in HUVECs (endothelial viability/proliferation)” value was “n.s. (up to 10 μM)” in data set [3]; “did not interfere with endothelial cell proliferation; also recorded: did obviously not impair endothelial viability and proliferation” in data set [3] (listed as [6]-shogaol). Besides, in data set [8], the “HO-1 levels compared to vehicle treated cells” value was “significantly elevated HO-1 levels”. In addition, the Cell-cycle distribution entry in [9] was “counteracted the PDGF-induced transition of VSMC from the G0/G1 cell-cycle phase to the G2/M phase”. In addition, the “Cell death (LDH release)” value was “n.s. (up to 10 μM)” in data set [4] and “did not exhibit cytotoxicity toward VSMC” in data set [4] (listed as [6]-shogaol).
For the molecule `CC(=O)O[C@H]1C(=O)[C@@]2(C)[C@H]([C@H](OC(=O)c3ccccc3)[C@]3(O)C[C@H](OC(=O)[C@H](O)[C@@H](NC(=O)c4ccccc4)c4ccccc4)C(C)=C1C3(C)C)[C@]1(OC(C)=O)CO[C@@H]1C[C@@H]2O` [paclitaxel, reference compound], the IC50 in data set [2] (Rattus norvegicus, data not shown, read-out: Anti-proliferative effect in VSMC (IC50)) came out at 0.108 µM; in data set [3] (Homo sapiens, Endothelial cell, endothelial cells, data not shown, read-out: Anti-proliferative effect in endothelial cells (IC50)), 0.004 µM.
